Source: PMC6435658, “Investigation into the Molecular Mechanisms underlying the Anti-proliferative and Anti-tumorigenesis activities of Diosmetin against HCT-116 Human Colorectal Cancer” (Scientific Reports, 2019)
≈ marks a conversion by molar mass, not a printed value.

Columns and labels:
[1] = test system: HT-29 cells; test: MTT cytotoxicity assay, HT-29; format: cell-based, human; conditions: for IC50: Homo sapiens, MTT
Procedure: [Worded in the source for another cell line; this cell line is reported under the same test.] (§1) Cytotoxicity property of Dis against HCT-116 and CCD-841 cells were measured by MTT assay as described by Mossman[77]. Briefly, cells were treated with different concentration of Dis and 5-Fu (positive control) with serial dilution factor of 2 for 8 concentrations in 96 well-plate for different time points (24 h, 48 h and 72 h). Subsequently at the end of each time point 20 µl of MTT (5 mg/ml, Affymetrix,Cleveland, OH, USA) were added to each well followed by 4 h incubation. The solutions were aspirated after 4 h and 100 µl of DMSO were added to each well. Absorbance for each well was read at 570 nm as measured by using microplate reader (Tecan Infinite multimode, Männedorf, Switzerland). Cytotoxicity (cell death) was measured by using the following formula: Celldeath(%)=sampleOD−controlOD/controlOD100
(§2) This assay was performed in triplicates in three independent experiments. The cytotoxicity property of Dis was presented as IC50 value.

[2] = test system: HCT-116 cells; test: MTT cytotoxicity assay, HCT-116; format: cell-based, human; conditions: for IC50: Homo sapiens, MTT
Procedure: as §1, §2

[3] = test system: CCD-841 cells; test: MTT cytotoxicity assay, CCD-841 normal colon cells; format: cell-based; conditions: Homo sapiens, CCD-841 non cancerous cells
Procedure: as §1, §2

**Q.** How did the IC50 ([1]; HT-29, 24 h) turn out when `O=c1[nH]cc(F)c(=O)[nH]1` [5-FU, 5-Fluorouracil, reference compound] was run?
**A.** 10.3 ± 2.7 µg/mL (≈ 79 µM)

**Q.** And the IC50 ([1]; HT-29, 48 h)?
**A.** 10.5 ± 1.3 µg/mL (≈ 80.6 µM)

**Q.** What about the IC50 ([1]; HT-29, 72 h) of the same compound?
**A.** 2.24 ± 0.53 µg/mL (≈ 17.2 µM)

**Q.** What about the “Selectivity Index (SI)” value ([1]; IC50 CCD-841 / IC50 HT-29, 24 h) of the same compound?
**A.** 19.15

**Q.** What about the “Selectivity Index (SI)” value ([1]; IC50 CCD-841 / IC50 HT-29, 48 h) of the same compound?
**A.** 2.7

**Q.** What about the “Selectivity Index (SI)” value ([1]; IC50 CCD-841 / IC50 HT-29, 72 h) of the same compound?
**A.** 6.46

**Q.** And the IC50 ([2]; HCT-116, 24 h)?
**A.** 5.43 ± 0.48 µg/mL (≈ 41.7 µM)

**Q.** What about the IC50 ([2]; HCT-116, 48 h) of the same compound?
**A.** 3.07 ± 0.34 µg/mL (≈ 23.6 µM)

**Q.** What about the IC50 ([2]; HCT-116, 72 h) of the same compound?
**A.** 1.47 ± 0.4 µg/mL (≈ 11.3 µM)

**Q.** And the “Selectivity Index (SI)” value ([2]; IC50 CCD-841 / IC50 HCT-116, 24 h)?
**A.** 36.27

**Q.** And the “Selectivity Index (SI)” value ([2]; IC50 CCD-841 / IC50 HCT-116, 48 h)?
**A.** 9.23

**Q.** What about the “Selectivity Index (SI)” value ([2]; IC50 CCD-841 / IC50 HCT-116, 72 h) of the same compound?
**A.** 9.85

**Q.** And the IC50 ([3]; 24 h)?
**A.** 197 ± 14.7 µg/mL (≈ 1510 µM)

**Q.** And the IC50 ([3]; 48 h)?
**A.** 28.3 ± 0.67 µg/mL (≈ 218 µM)

**Q.** And the IC50 ([3]; 72 h)?
**A.** 14.5 ± 0.68 µg/mL (≈ 111 µM)
